Calls of active or inactive are those of the source.
How the values were obtained:
[1] = molecular target: T1, Endoribonuclease toxin MazF (Escherichia coli K-12, UniProt P0AE70); assay: substrate-only fluorescence increase artefacts – biochemical, single-stranded RNase substrate, counter-screen for MazEF activator project, dose response (AID 588502); type: functional
T1 sequence (P0AE70 whole entry): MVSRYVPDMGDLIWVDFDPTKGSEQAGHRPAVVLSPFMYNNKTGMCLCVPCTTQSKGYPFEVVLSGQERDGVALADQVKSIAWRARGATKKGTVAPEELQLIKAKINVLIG

[2] = molecular target: T1, Endoribonuclease toxin MazF; assay: activation of MazEF endoribonuclease cleavage – biochemical, fluorescence, single-stranded RNA substrate, uHTS hits, dose response (AID 588481); type: functional
[3] = molecular target: T2, RNA-binding protein pos-1 (Caenorhabditis elegans, UniProt G5EF15); assay: disruptors of C. elegans POS-1 RNA interaction – biochemical, fluorescence polarization, dose response (AID 1964);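 further: purified POS-1 fused to maltose binding protein made in E. coli; potency of compounds blocking POS-1 binding to fluorescent RNA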
T2 sequence (G5EF15 whole entry): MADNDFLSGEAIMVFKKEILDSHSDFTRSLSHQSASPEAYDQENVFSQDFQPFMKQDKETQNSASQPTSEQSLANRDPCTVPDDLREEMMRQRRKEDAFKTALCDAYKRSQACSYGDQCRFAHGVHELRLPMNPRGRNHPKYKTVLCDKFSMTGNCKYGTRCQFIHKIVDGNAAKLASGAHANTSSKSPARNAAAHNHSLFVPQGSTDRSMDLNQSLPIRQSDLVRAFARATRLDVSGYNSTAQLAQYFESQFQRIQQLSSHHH

[4] = molecular target: T3, Zinc finger protein mex-5 (Caenorhabditis elegans, UniProt Q9XUB2); assay: potency of MEX-5 RNA-binding blockers – biochemical, C. elegans, fluorescence polarization, dose response (AID 1960)
T3 sequence (Q9XUB2 whole entry): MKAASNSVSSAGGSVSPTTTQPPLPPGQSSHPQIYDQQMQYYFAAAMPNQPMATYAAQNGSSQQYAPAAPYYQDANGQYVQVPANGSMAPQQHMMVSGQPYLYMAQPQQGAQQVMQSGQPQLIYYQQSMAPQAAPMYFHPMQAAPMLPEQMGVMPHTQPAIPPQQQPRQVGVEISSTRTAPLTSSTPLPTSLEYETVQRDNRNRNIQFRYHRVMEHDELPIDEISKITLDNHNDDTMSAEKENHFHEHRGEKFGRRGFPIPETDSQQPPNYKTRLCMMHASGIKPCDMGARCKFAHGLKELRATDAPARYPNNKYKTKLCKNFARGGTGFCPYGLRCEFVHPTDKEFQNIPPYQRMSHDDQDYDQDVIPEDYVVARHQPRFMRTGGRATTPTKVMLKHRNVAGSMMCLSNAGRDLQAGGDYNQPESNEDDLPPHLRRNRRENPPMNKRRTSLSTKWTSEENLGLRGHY

[5] = molecular target: T4, Type-1 angiotensin II receptor (Homo sapiens, UniProt P30556); assay: antagonism of angiotensin II type 1 receptor – cell-based, uHTS hits, selectivity assay for APJ receptor antagonist project, dose response (AID 463214); type: functional;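 further: antagonist potency against angiotensin II stimulated AT1 response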
T4 sequence (P30556 whole entry): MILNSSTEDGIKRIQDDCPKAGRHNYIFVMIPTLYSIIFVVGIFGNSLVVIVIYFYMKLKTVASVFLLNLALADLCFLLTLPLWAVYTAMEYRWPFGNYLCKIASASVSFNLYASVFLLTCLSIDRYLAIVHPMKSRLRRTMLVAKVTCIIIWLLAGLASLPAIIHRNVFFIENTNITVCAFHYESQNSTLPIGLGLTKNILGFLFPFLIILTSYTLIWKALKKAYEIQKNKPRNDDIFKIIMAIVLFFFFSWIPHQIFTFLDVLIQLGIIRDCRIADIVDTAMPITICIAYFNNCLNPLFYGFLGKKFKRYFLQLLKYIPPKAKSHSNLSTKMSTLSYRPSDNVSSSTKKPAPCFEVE

Beta-galactosidase = Beta-galactosidase (Escherichia coli, UniProt Q8VNN2); assay: PubChem AID 485352; type: functional
Chain of Beta-galactosidase (Q8VNN2 whole entry): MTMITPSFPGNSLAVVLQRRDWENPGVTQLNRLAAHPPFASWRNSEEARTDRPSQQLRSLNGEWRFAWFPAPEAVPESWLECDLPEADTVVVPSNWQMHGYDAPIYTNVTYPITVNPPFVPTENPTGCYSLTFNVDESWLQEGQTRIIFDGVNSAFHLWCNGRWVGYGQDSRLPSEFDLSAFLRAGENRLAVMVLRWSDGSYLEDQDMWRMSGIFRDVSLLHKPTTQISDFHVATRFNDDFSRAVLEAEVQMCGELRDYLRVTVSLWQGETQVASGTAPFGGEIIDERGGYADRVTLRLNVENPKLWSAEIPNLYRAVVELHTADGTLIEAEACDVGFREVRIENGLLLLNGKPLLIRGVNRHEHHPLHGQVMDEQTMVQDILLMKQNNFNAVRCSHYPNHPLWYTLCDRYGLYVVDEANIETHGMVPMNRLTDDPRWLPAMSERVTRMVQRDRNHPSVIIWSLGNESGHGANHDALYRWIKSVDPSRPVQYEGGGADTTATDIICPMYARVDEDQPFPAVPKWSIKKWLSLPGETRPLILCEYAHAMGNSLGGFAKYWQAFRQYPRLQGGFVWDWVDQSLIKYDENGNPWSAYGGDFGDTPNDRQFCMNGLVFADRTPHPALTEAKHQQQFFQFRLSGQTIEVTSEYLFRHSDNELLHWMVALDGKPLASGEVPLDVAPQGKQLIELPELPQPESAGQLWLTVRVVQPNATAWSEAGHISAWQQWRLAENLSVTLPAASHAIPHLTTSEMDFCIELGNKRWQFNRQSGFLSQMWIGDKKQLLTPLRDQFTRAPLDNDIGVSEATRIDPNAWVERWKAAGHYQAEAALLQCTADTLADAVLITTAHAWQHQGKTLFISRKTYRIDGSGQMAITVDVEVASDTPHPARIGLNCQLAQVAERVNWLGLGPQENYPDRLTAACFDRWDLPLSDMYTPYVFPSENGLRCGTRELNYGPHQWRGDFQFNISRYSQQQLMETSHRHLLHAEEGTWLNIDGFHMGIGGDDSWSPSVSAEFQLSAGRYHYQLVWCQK

[6] = molecular target: FAD-linked sulfhydryl oxidase ALR (Homo sapiens, UniProt P55789); assay: ALR-catalysed DTT oxidation blockers – biochemical, H2O2 detection, luminescence, cherry-pick, dose response (AID 493248)
Chain of FAD-linked sulfhydryl oxidase ALR (P55789 whole entry): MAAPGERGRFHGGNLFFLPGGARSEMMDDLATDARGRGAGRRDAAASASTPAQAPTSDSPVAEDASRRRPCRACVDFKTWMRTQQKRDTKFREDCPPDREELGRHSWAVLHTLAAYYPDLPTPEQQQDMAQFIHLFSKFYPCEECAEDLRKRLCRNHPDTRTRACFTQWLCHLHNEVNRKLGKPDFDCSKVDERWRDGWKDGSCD

Caspase-6 = molecular target: T5, Caspase-6 (Homo sapiens, UniProt P55212); assay: inhibition of CASP6 peptide cleavage – biochemical, VEID-R110 fluorescence, cherry-pick, dose response (AID 720632)
T5 sequence (P55212 whole entry): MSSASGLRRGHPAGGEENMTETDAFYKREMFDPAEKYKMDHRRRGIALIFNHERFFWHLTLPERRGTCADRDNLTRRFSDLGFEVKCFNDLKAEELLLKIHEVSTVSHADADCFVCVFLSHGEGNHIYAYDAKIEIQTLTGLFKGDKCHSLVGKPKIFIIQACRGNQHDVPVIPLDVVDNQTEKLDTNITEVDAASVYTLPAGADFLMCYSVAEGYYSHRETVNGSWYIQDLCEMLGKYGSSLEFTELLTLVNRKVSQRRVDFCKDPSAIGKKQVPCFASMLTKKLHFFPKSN

[7] = molecular target: Dual specificity tyrosine-phosphorylation-regulated kinase 1A (Rattus norvegicus, UniProt Q63470); type: biochemical, Homo sapiens
Aminopeptidase N = molecular target: T6, Aminopeptidase N (Plasmodium falciparum FcB1/Columbia, UniProt O96935); assay: malaria alanyl aminopeptidase activity blockers – biochemical, fluorogenic H-Leu-NHMec substrate, 1536-well (AID 1445); design: species or system Plasmodium falciparum 3D7, 3D7
T6 sequence (O96935 whole entry): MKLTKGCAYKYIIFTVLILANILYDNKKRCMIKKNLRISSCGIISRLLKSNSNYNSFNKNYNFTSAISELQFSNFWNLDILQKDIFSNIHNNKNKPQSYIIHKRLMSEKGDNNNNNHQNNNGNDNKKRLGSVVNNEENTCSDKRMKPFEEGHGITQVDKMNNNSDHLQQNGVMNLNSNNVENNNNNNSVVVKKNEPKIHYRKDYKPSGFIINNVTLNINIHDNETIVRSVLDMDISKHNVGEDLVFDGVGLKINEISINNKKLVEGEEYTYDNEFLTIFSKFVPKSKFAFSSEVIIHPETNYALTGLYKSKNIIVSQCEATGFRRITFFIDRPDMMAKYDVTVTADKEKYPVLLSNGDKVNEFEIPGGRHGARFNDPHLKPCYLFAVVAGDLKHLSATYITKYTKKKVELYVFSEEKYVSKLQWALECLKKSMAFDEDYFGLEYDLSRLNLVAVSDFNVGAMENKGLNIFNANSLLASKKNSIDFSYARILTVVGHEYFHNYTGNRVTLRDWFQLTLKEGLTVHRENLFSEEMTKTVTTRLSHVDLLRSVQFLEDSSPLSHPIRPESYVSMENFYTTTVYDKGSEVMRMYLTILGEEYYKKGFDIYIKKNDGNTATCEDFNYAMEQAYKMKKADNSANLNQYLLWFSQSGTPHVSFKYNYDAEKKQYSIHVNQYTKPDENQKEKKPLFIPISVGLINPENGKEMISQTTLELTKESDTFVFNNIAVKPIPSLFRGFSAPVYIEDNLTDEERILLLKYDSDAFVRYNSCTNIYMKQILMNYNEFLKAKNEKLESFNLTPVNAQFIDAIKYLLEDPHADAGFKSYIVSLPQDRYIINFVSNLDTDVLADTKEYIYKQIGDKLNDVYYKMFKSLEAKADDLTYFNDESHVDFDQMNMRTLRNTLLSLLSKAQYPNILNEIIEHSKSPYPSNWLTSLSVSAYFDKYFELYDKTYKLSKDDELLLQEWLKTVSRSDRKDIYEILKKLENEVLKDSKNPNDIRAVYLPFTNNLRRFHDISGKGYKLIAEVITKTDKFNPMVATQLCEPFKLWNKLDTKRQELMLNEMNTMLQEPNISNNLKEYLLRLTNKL

[8] = molecular target: T7, RNA-editing ligase 1, mitochondrial (Trypanosoma brucei brucei, UniProt P86926); assay: inhibition of trypanosome RNA editing ligase – biochemical, fluorescence, Trypanosoma brucei, dose response (AID 1117295); type: functional
T7 sequence (P86926 whole entry): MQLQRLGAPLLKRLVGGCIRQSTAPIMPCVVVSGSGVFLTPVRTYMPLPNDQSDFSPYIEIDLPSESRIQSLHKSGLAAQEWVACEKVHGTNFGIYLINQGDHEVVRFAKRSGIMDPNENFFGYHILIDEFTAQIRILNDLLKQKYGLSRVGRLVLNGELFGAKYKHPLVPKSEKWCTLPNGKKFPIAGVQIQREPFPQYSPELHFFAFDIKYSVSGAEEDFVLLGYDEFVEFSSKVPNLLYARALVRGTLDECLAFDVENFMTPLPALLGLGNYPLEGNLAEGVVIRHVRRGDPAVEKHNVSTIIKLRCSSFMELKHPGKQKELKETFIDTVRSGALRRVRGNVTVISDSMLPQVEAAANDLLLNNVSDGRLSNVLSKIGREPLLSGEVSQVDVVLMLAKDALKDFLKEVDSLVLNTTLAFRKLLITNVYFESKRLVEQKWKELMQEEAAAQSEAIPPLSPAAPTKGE

Cytochrome P450 1A2 = molecular target: T8, Cytochrome P450 1A2 (Homo sapiens, UniProt P05177);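 further: PubChem cytochrome P450 panel assay, CYP1A2 panel member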
T8 sequence (P05177 whole entry): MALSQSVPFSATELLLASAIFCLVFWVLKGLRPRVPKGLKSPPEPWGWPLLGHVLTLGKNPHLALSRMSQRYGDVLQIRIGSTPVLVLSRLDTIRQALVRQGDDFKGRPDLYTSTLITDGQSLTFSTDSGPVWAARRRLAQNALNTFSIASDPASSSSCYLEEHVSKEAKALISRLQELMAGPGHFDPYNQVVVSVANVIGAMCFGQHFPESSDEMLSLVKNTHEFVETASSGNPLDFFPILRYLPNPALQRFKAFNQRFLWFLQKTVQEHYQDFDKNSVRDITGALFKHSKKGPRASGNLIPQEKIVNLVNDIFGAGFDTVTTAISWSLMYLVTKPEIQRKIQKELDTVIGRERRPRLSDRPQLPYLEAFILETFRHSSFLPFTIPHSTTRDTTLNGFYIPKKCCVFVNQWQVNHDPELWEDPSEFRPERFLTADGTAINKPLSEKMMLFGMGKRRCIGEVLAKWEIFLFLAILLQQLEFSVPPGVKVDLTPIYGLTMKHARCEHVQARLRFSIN

[9] = molecular target: Arf-GAP with SH3 domain, ANK repeat and PH domain-containing protein 1 (Homo sapiens, UniProt Q9ULH1); type: functional;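 further: biochemical fluorescence polarization dose–response screen measuring inhibition of ASAP1; ASAP1 GAP domain stimulating GTP hydrolysis by truncated human ARF1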
Chain of Arf-GAP with SH3 domain, ANK repeat and PH domain-containing protein 1 (Q9ULH1 whole entry, the tested form may be a part): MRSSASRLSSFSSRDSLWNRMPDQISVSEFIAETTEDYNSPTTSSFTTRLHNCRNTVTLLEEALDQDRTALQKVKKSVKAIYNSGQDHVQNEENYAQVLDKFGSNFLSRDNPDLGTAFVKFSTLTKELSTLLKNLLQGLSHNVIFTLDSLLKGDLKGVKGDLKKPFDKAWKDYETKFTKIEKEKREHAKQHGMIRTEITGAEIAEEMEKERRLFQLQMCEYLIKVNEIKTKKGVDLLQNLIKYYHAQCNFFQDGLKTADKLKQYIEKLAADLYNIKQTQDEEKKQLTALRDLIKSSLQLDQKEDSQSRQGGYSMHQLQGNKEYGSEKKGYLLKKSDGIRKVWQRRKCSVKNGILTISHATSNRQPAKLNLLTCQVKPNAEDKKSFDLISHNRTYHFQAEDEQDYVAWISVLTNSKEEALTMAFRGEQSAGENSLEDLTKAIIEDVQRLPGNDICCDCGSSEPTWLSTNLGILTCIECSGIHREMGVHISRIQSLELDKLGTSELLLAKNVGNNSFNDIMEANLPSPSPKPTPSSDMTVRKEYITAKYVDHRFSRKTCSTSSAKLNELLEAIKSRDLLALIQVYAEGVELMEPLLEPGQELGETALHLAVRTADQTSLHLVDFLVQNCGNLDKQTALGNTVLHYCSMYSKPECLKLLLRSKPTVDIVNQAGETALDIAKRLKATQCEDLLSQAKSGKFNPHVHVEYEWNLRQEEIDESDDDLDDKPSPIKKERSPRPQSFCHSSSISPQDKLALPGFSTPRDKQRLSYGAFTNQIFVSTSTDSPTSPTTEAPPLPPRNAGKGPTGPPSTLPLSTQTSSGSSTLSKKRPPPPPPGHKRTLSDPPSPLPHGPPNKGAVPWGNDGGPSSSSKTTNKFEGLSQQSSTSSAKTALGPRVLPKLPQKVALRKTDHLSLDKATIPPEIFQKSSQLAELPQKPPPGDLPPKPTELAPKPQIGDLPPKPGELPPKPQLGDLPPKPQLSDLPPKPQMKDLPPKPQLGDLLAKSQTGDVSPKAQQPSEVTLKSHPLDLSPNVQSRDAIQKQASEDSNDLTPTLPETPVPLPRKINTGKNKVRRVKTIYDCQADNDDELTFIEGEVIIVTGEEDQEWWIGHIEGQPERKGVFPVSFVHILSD

SMILES	EC50 [1]	EC50 [2]	EC50 [3]	EC50 [4]	further results
O=[N+]([O-])c1ccc(C=CC=Cc2ccccc2)cc1	> 99 µM (inactive)	> 99 µM (inactive)	–	–	–
CCOC(=O)C1=C2NC(=O)c3ccccc3N2C(=O)C1	–	–	89 µM (active)	38.8 µM (active)	IC50 [5]: 9.25 µM (active); EC50 (Beta-galactosidase): > 40 µM (inactive)
COc1c(O)cc2oc(-c3ccc(O)c(O)c3)cc(=O)c2c1O [EUPAFOLIN]	–	–	93.1 µM (active)	36 µM (active)	AC50 [6]: 0.23 µM (active); AC50 (Caspase-6): 29.3 µM (active); AC50 [7]: 12.7 µM (active); IC50 (Aminopeptidase N): 15.6 µM (active); IC50 [8]: > 96.6 µM (inactive)
O=c1oc2ccc3ccccc3c2cc1-c1nc2ccccc2o1	> 99 µM (inactive)	> 99 µM (inactive)	> 300 µM (not active)	> 300 µM (inconclusive)	–
Cc1ccc(NC(=O)c2ccc(NCC3CCCO3)c([N+](=O)[O-])c2)cc1Cl (stereo unspecified)	> 99 µM (inactive)	> 99 µM (inactive)	–	–	AC50 (Cytochrome P450 1A2): 14.1 µM (inconclusive); IC50 [9]: 5.2 µM (active)

Source: ChEMBL document CHEMBL1201862, “PubChem BioAssay data set” (2004)
